Laboratory results reported in patent US20260297092A1, “PYRAZOLOPYRIMIDINE DERIVATIVES AS INHIBITORS OF NLRP3” (Takeda Pharmaceutical Company Limited, priority 2023, published 2026).

tested on: TNF-α (NF-κB pathway, THP-1 cells); assay: TNF-α Assay (IC50); format: cell-based, human; details: Homo sapiens, 600 ng/mL LPS, 3 hours
Experimental: TNF-α Assay (Reported as IC50)
Monocytic THP-1 cells (ATCC: TIB-202) were maintained in accordance with the provider's instructions in RPMI media (Life Technologies, Cat #A10491-01); RPMI was supplemented with 10% heat inactivated fetal bovine serum (Hyclone Cat #SH30396.03). The cells were differentiated into macrophages by the addition of 25 ng/mL IFN-7 for 24 hours at 37° C./5% CO2. Media was exchanged with fresh media with no FBS. The cells were plated at 40,000 cells per well in 384-well flat-bottom cell culture plates (Costar 3764) containing compounds (added in 1:1000) in a 1:3.16 serial dilution series in DMSO and were incubated for 30 minutes at 37° C./5% CO2. The NF-κB pathway was activated with the addition of 600 ng/mL LPS and the cells were incubated for 3 hours at 37° C./5% CO2. At the end of the incubation period, supernatant ([…]) was removed, and TNF-alpha were monitored using an ELISA (Human TNF-α ELISA, R&D systems, Cat #DY210) according to the manufacturer's instructions. 100% inhibition is determined with positive control, TPCA-1.
The IC50 values in the TNF-α assay were calculated from a plot of percentage of inhibition versus the inhibitor concentration by a logistics curve fit according to: Y=[Bottom+(Top−Bottom)]/(1+10^[(Log IC50−X)·Hill Slope], where Y was the […] at the inhibitor concentration, X, “Bottom” was the lowest inhibition value, i.e., 0%, “Top” was the maximum inhibition value, i.e., 100%, and the “Hill Slope” described the slope of the sigmoidal curve between the “Bottom” and “Top” values. The curve fitting was conducted with internally developed software.

SMILES | IC50 [µM]
COc1nc2nn(-c3c(C)cc(C4CC4)cc3OC(F)F)cc2c(=O)[nH]1 [Example 252, 2-[4-cyclopropyl-2-(difluoromethoxy)-6-methylphenyl]-6-methoxy-2,5-dihydro-4H-pyrazolo [3,4-d]pyrimidin-4-one] | > 30
CCOc1nc2nn(-c3c(C)cc(OC(F)F)cc3C(F)F)cc2c(=O)[nH]1 [Example 195, 2-[4-(difluoromethoxy)-2-(difluoromethyl)-6-methylphenyl]-6-ethoxy-2,5-dihydro-4H-pyrazolo[3,4-d]pyrimidin-4-one] | > 30
CO[C@@H](C)COc1nc2nn(-c3c(F)cc(C4CC4)cc3C(F)F)cc2c(=O)[nH]1 [Example 203, 2-[4-cyclopropyl-2-(difluoromethyl)-6-fluorophenyl]-6-[(2S)-2-methoxypropoxy]-2,5-dihydro-4H-pyrazolo[3,4-d]pyrimidin-4-one] | > 30
Cc1cc(C)c(-n2cc3c(=O)[nH]c(-c4ccnc(C)n4)nc3n2)c(O)c1 [Example 15, 2-(2-hydroxy-4,6-dimethylphenyl)-6-(2-methylpyrimidin-4-yl)-2,5-dihydro-4H-pyrazolo [3,4-d]pyrimidin-4-one] | > 30

tested on: NLRP3 inflammasome (IL-1β production in THP-1 cells); assay: IL-1β TR-FRET Assay (percentage of inhibition at 300 nM, 6 μM or 10 μM); format: cell-based, human; details: Homo sapiens, THP-1, 300 nM, LPS priming, ATP activation, read-out: IL-1β inhibitory rate at 300 nM (%)
Experimental: The biological activity of the compound of Formula 1 with respect to NLRP3 was determined using the following in vitro method.
IL-1β TR-FRET Assay (reported as percentage of inhibition at 300 nM, 6 μM or 10 μM)
Monocytic THP-1 cells (ATCC: TIB-202) were maintained in accordance with the provider's instructions in RPMI media (Life Technologies, Cat #A10491-01); RPMI was supplemented with 10% heat inactivated fetal bovine serum (Corning, Cat #35-010-CV). The cells were differentiated into macrophages by the addition of 25 ng/mL IFN-γ (PeproTech, Cat #AF-300-02-100UG) for 24 hours at 37° C./5% CO2. Media was exchanged with fresh media with no FBS, and the cells were treated with 50 ng/mL LPS (priming step) (LPS-EK: Invivogen, Cat #tlrl-peklps). The cells were plated at 20,000 cells per well in 384-well flat-bottom cell culture plates (FALCON, Cat #353962) and were incubated for 24 hours at 37° C./5% CO2. Compounds were serially diluted (half log or 5-fold dilutions) with DMSO and were finally diluted with Media with no FBS. The compounds were added to the cells in 384-well plates (added in 1:3) and then the plates were incubated for 30 minutes at 37° C./5% CO2. The NLRP3 inflammasome was activated with the addition of 20 mM ATP (Sigma Cat #A3377-25G) and the cells were incubated for 2 hours at 37° C./5% CO2. At the end of the incubation period, 30 μL supernatant was transferred to another 384-well plate and mixed on a plate shaker for 1 minute. The supernatant was mixed with HTRF Antibody (Human IL1 beta kit, Cisbio, 62HIL1BPEH) in assay plates (Greiner Bio-One, Cat #784075) and the assay plates were incubated in shading box at room temperature for 16-24 hours. HTRF signal was measured by EnVision (Perkinelmer) in accordance with the manufacturer's instructions.
The percentage of inhibition at 300 nM, 6 μM or 10 μM in the IL-1βTR-FRET assay was calculated by the following formula: Percentage of inhibition=[1−(HTRF signaltest−HTRF signalLow)/(HTRF signalHigh−HTRF signalLow)]*100, where HTRF signaltest is the HTRF signal in the well to which test compound is added, HTRF signalLow is the HTRF signal in the well to which 3 μM MCC-950 is added, and the HTRF signalHigh is the HTRF signal in the well to which DMSO is added.

SMILES | inhibition at 0.3 µM [%]
CCOc1nc2nn(-c3c(C)cc(OC(F)F)cc3C(F)F)cc2c(=O)[nH]1 [Example 195, 2-[4-(difluoromethoxy)-2-(difluoromethyl)-6-methylphenyl]-6-ethoxy-2,5-dihydro-4H-pyrazolo[3,4-d]pyrimidin-4-one] | 101
CO[C@@H](C)COc1nc2nn(-c3c(F)cc(C4CC4)cc3C(F)F)cc2c(=O)[nH]1 [Example 203, 2-[4-cyclopropyl-2-(difluoromethyl)-6-fluorophenyl]-6-[(2S)-2-methoxypropoxy]-2,5-dihydro-4H-pyrazolo[3,4-d]pyrimidin-4-one] | 99
Cc1cc(C)c(-n2cc3c(=O)[nH]c(-c4ccnc(C)n4)nc3n2)c(O)c1 [Example 15, 2-(2-hydroxy-4,6-dimethylphenyl)-6-(2-methylpyrimidin-4-yl)-2,5-dihydro-4H-pyrazolo [3,4-d]pyrimidin-4-one] | 99
COCCOc1nc2nn(-c3c(C)cc(C4CC4)cc3OC(F)F)cc2c(=O)[nH]1 [Example 225, 2-[4-cyclopropyl-2-(difluoromethoxy)-6-methylphenyl]-6-(2-methoxyethoxy)-2,5-dihydro-4H-pyrazolo[3,4-d]pyrimidin-4-one] | 100
Cc1ccc(-n2cc3c(=O)[nH]c(OCCC(F)(F)F)nc3n2)c(C)c1 [Example 197, 2-(2,4-dimethylphenyl)-6-(3,3,3-trifluoropropoxy)-2,5-dihydro-4H-pyrazolo [3,4-d]pyrimidin-4-one] | 60
Cc1cc(C2CC2)cc(C)c1-n1cc2c(=O)[nH]c(C3COCCO3)nc2n1 (racemic) [Example 232, 2-(4-cyclopropyl-2,6-dimethylphenyl)-6-(1,4-dioxan-2-yl)-2,5-dihydro-4H-pyrazolo[3,4-d]pyrimidin-4-one] | 97
Cc1cc(C2CC2)cc(C)c1-n1cc2c(=O)[nH]c(-c3cnn(C)c3)nc2n1 [Example 217, 2-(4-cyclopropyl-2,6-dimethylphenyl)-6-(1-methyl-1H-pyrazol-4-yl)-2,5-dihydro-4H-pyrazolo[3,4-d]pyrimidin-4-one] | 108
Cc1ccc(-n2cc3c(=O)[nH]c(O[C@H]4C[C@H](C#N)C4)nc3n2)c(C)c1 [Example 219, 3-{[2-(2,4-dimethylphenyl)-4-oxo-4,5-dihydro-2H-pyrazolo[3,4-d]pyrimidin-6-yl]oxy}cyclobutane-1-carbonitrile] | 96
Cc1cc(C2CC2)cc(C)c1-n1cc2c(=O)[nH]c(C3CCCO3)nc2n1 (racemic) [Example 223, 2-(4-cyclopropyl-2,6-dimethylphenyl)-6-(oxolan-2-yl)-2,5-dihydro-4H-pyrazolo[3,4-d]pyrimidin-4-one] | 100
Cc1cc(C2CC2)cc(C)c1-n1cc2c(=O)[nH]c(CC(C)(C)O)nc2n1 [Example 181, 2-(4-cyclopropyl-2,6-dimethylphenyl)-6-(2-hydroxy-2-methylpropyl)-2,5-dihydro-4H-pyrazolo[3,4-d]pyrimidin-4-one] | 103
CCOc1nc2nn(-c3c(C)cc(C4CC4)nc3C)cc2c(=O)[nH]1 [Example 174, 2-(6-cyclopropyl-2,4-dimethylpyridin-3-yl)-6-ethoxy-2,5-dihydro-4H-pyrazolo[3,4-d]pyrimidin-4-one] | 108

same assay, conditions: Homo sapiens, THP-1, 6 μM, LPS priming, ATP activation, read-out: IL-1β inhibitory rate at 6 μM (%)

SMILES | inhibition at 6 µM [%]
COc1nc2nn(-c3c(C)cc(C4CC4)cc3OC(F)F)cc2c(=O)[nH]1 [Example 252, 2-[4-cyclopropyl-2-(difluoromethoxy)-6-methylphenyl]-6-methoxy-2,5-dihydro-4H-pyrazolo [3,4-d]pyrimidin-4-one] | 103
Cc1cc(C2CC2)cc(C)c1-n1cc2c(=O)[nH]c(-c3ncc(C(F)(F)F)[nH]3)nc2n1 [Example 242, 2-(4-cyclopropyl-2,6-dimethylphenyl)-6-[5-(trifluoromethyl)-1H-imidazol-2-yl]-2,5-dihydro-4H-pyrazolo[3,4-d]pyrimidin-4-one] | 104
O=c1[nH]c(COC(F)F)nc2nn(-c3ccc(C4CC4)cc3C(F)F)cc12 [Example 271, 2-[4-cyclopropyl-2-(difluoromethyl)phenyl]-6-[(difluoromethoxy)methyl]-2,5-dihydro-4H-pyrazolo[3,4-d]pyrimidin-4-one] | 102
Cc1cc(C2CC2)cc(C)c1-n1cc2c(=O)[nH]c(-c3cn4c(n3)COCC4)nc2n1 [Example 264, 2-(4-cyclopropyl-2,6-dimethylphenyl)-6-(5,6-dihydro-8H-imidazo[2,1-c][1,4]oxazin-2-yl)-2,5-dihydro-4H-pyrazolo[3,4-d]pyrimidin-4-one] | 100
COCc1nc2nn(-c3c(C(F)F)cc(C4CC4)c(C4CC4)c3C)cc2c(=O)[nH]1 [Example 320, 2-[3,4-dicyclopropyl-6-(difluoromethyl)-2-methylphenyl)-6-(methoxymethyl)-2,5-dihydro-4H-pyrazolo[3,4-d]pyrimidin-4-one] | 94
COCc1nc2nn(-c3c(C)cc(C4CC4)cc3CC(F)F)cc2c(=O)[nH]1 [Example 323, 2-[4-cyclopropyl-2-(2,2-difluoroethyl)-6-methylphenyl]-6-(methoxymethyl)-2,5-dihydro-4H-pyrazolo[3,4-d]pyrimidin-4-one] | 103
O=c1[nH]c(C2COCCO2)nc2nn(-c3c(F)cc(C4CC4)cc3C(F)F)cc12 (racemic) [Example 305, 2-[4-cyclopropyl-2-(difluoromethyl)-6-fluorophenyl]-6-(1,4-dioxan-2-yl)-2,5-dihydro-4H-pyrazolo[3,4-d]pyrimidin-4-one] | 103
CO[C@H]1C[C@@H](c2nc3nn(-c4c(C)cc(C5CC5)cc4C)cc3c(=O)[nH]2)C1 [Example 248, 2-(4-cyclopropyl-2,6-dimethylphenyl)-6-[(1s,3s)-3-methoxycyclobutyl]-2,5-dihydro-4H-pyrazolo[3,4-d]pyrimidin-4-one] | 100
CCOc1nc2nn(-c3c(Br)cc(C4CC4)cc3C(F)F)cc2c(=O)[nH]1 [Example 250, 2-[2-bromo-4-cyclopropyl-6-(difluoromethyl)phenyl]-6-ethoxy-2,5-dihydro-4H-pyrazolo[3,4-d]pyrimidin-4-one] | 103
CCOc1c(-n2cc3c(=O)[nH]c(CC)nc3n2)ccc(C2CC2)c1C(F)F [Example 282, 2-[4-cyclopropyl-3-(difluoromethyl)-2-ethoxyphenyl]-6-ethyl-2,5-dihydro-4H-pyrazolo[3,4-d]pyrimidin-4-one] | 55
Cc1cc(C2CC2)cc(C)c1-n1cc2c(=O)[nH]c(C3(C#N)CC3)nc2n1 [Example 318, 1-[2-(4-cyclopropyl-2,6-dimethylphenyl)-4-oxo-4,5-dihydro-2H-pyrazolo[3,4-d]pyrimidin-6-yl]cyclopropane-1-carbonitrile] | 98
